Test results: patent publication US20170304388A1, “NEW INDICATION OF CARDIOVASCULAR DRUGS FOR PREPARATION OF CANCER INHIBITION PHARMACEUTICAL COMPOSITION” (LAUNX BIOMEDICAL CO., LTD., priority 2014, published 2017)
Where two headings read alike, the source gives them in different places.

Columns and labels:
Type in all cases: cell-based
[1] = tested on: A375 (Amelanotic Melanoma); test: Cell viability analysis (WST-1), A375; conditions: Homo sapiens, A-375, 72 h
[2] = tested on: HCT116 (Colorectal Carcinoma); test: Cell viability analysis (WST-1), HCT116; conditions: Homo sapiens, HCT-116, 72 h
[3] = tested on: HepG2 (Hepatocellular Carcinoma); test: Cell viability analysis (WST-1), HepG2; conditions: Homo sapiens, HepG2, 72 h
[4] = tested on: HeLa (Cervix Adenocarcinoma); test: Cell viability analysis (WST-1), HeLa; conditions: Homo sapiens, HeLa, 72 h
[5] = tested on: AGS (Gastric Adenocarcinoma); test: Cell viability analysis (WST-1), AGS; conditions: 72 h
[6] = tested on: H1650 (Lung Adenocarcinoma); test: Cell viability analysis (WST-1), H1650; conditions: Homo sapiens, NCI-H1650, 72 h
[7] = tested on: MKN-45 (Gastric Adenocarcinoma); test: Cell viability analysis (WST-1), MKN-45; conditions: Homo sapiens, MKN-45, 72 h
[8] = tested on: TSGH-8301 (Urinary Bladder Carcinoma); test: Cell viability analysis (WST-1), TSGH-8301; conditions: 72 h
[9] = tested on: A549 (Lung Adenocarcinoma); test: Cell viability analysis (WST-1), A549; conditions: Homo sapiens, A549, 72 h
[10] = tested on: MCF7 (Mammary Gland, Adenocarcinoma); test: Cell viability analysis (WST-1), MCF7; conditions: Homo sapiens, MCF7, 72 h
[11] = tested on: PC3 (Prostate Adenocarcinoma); test: Cell viability analysis (WST-1), PC3; conditions: 72 h
[12] = tested on: LoVo (Colorectal Adenocarcinoma); test: Cell viability analysis (WST-1), LoVo; conditions: Homo sapiens, LoVo, 72 h
T24 = test: Cell viability analysis (WST-1), T24; conditions: Homo sapiens, T-24, 72 h, Table 4, repeated experiments, drug 10 μM, read-out: survival rate (viability) of cancer cells, T24
Method: (§1) Subculture the different types of cancer cells. The cancer cells includes lung cancer, gastric cancer, hepatic cancer, colon cancer, skin cancer, cervical cancer, prostate cancer, bladder cancer, breast cancer, leukemia, pancreatic cancer, ovarian cancer, tongue cancer, osteosarcoma, and renal cancer. The cell numbers were counted and reseed as 2×10^6 in cell culture plate/flask. Then, the culture medium for culturing the cell lines was added to a volume of 10 ml, and the cells were cultured for 2-3 days. Then, the cells were suspended for loading into 96-well plates. The cell number was 3000 cells and the volume of the culture medium was 100 ul each well.
(§2) Removing the original culture medium from 96-well plate. Then add 100 μl of commercially drug at a concentration of 10 μM per well. After 72 hours, add the diluted WST-1 reagent to the well with 100 μl/well, and the diluted WST-1 reagent was acquired from the dilution of 9:1 medium and WST-1 stock reagent. Finally, the total volume of each well are 200 μl/well. Culture the 96-well plate at 37° C. for 30 to 90 minutes. Detecting and calculating the survival rate of each cancer cells with an ELISA reader at OD450 nm. The lower viability of cancer cells represents better inhibition effect via the drugs. Otherwise, the higher viability of cancer cells represents worse inhibition effect via the drugs.
(§3) According to the above mentioned cardiovascular drugs for cancer growth inhibition in Table 3, the inventors took the repeat experiments for the cardiovascular drugs to check the growth inhibitory effects of cancer cells by the cardiovascular drugs. […] 4.

Hep3B = test: Cell viability analysis (WST-1), Hep3B; conditions: Homo sapiens, Hep3B, 72 h, Table 4, repeated experiments, drug 10 μM, read-out: survival rate (viability) of cancer cells, Hep3B
Method: as §1, §2, §3

C-33A = test: Cell viability analysis (WST-1), C-33A; conditions: Homo sapiens, C-33-A, 72 h, Table 4, repeated experiments, drug 10 μM, read-out: survival rate (viability) of cancer cells, C-33A
Method: as §1, §2, §3

NIH-OVCAR-3 = test: Cell viability analysis (WST-1), NIH-OVCAR-3; conditions: Homo sapiens, OVCAR-3, 72 h, Table 4, repeated experiments, drug 10 μM, read-out: survival rate (viability) of cancer cells, NIH-OVCAR-3
Method: as §1, §2, §3

TOV-21G = test: Cell viability analysis (WST-1), TOV-21G; conditions: Homo sapiens, TOV21G, 72 h, Table 4, repeated experiments, drug 10 μM, read-out: survival rate (viability) of cancer cells, TOV-21G
Method: as §1, §2, §3

AsPC-1 = test: Cell viability analysis (WST-1), AsPC-1; conditions: Homo sapiens, ASPC1, 72 h, Table 4, repeated experiments, drug 10 μM, read-out: survival rate (viability) of cancer cells, AsPC-1
Method: as §1, §2, §3

BxPC-3 = test: Cell viability analysis (WST-1), BxPC-3; conditions: Homo sapiens, BXPC-3, 72 h, Table 4, repeated experiments, drug 10 μM, read-out: survival rate (viability) of cancer cells, BxPC-3
Method: as §1, §2, §3

SAS = test: Cell viability analysis (WST-1), SAS; conditions: 72 h, Table 4, repeated experiments, drug 10 μM, read-out: survival rate (viability) of cancer cells, SAS
Method: as §1, §2, §3

U2OS = test: Cell viability analysis (WST-1), U2OS; conditions: Homo sapiens, U2OS, 72 h, Table 4, repeated experiments, drug 10 μM, read-out: survival rate (viability) of cancer cells, U2OS
Method: as §1, §2, §3

BCC = test: Cell viability analysis (WST-1), BCC; conditions: BCC, 72 h, Table 4, repeated experiments, drug 10 μM, read-out: survival rate (viability) of cancer cells, BCC
786-O = test: Cell viability analysis (WST-1), 786-O; conditions: Homo sapiens, 786-0, 72 h, Table 4, repeated experiments, drug 10 μM, read-out: survival rate (viability) of cancer cells, 786-O
Method: as §1, §2, §3

cancer cell lines = test: Growth inhibitory effects on the panel of cancer cell lines; conditions: drug 10 μM, 72 hours; for inhibition effect on different cancer cell lines (in words): WST-1; for Numbers of inhibitory effect on cancer cell line: count of cancer cell lines inhibited
[13] = tested on: HL-60 (Acute Promyelocytic Leukemia); test: Cell viability analysis (WST-1), HL-60; conditions: Homo sapiens, HL-60; Table 3; drug 10 μM, 72 hours, WST-1, OD450 nm; read-out: survival rate (viability) of cancer cells, HL-60
[14] = Table 4, repeated experiments, drug 10 μM, WST-1, read-out: survival rate (viability) of cancer cells, HCT116
[15] = Table 4, repeated experiments, drug 10 μM, WST-1, read-out: survival rate (viability) of cancer cells, AGS
[16] = Table 4, repeated experiments, drug 10 μM, WST-1, read-out: survival rate (viability) of cancer cells, MKN-45
[17] = Table 4, repeated experiments, drug 10 μM, WST-1, read-out: survival rate (viability) of cancer cells, TSGH-8301
[18] = Table 4, repeated experiments, drug 10 μM, WST-1, read-out: survival rate (viability) of cancer cells, MCF-7
[19] = Table 4, repeated experiments, drug 10 μM, WST-1, read-out: survival rate (viability) of cancer cells, PC-3
[20] = Table 3, drug 10 μM, WST-1, OD450 nm, lower viability = better inhibition, read-out: survival rate (viability) of cancer cells, A375
[21] = Table 3, drug 10 μM, WST-1, OD450 nm, read-out: survival rate (viability) of cancer cells, HCT116 (WT)
[22] = Table 3, drug 10 μM, WST-1, OD450 nm, read-out: survival rate (viability) of cancer cells, HepG2
[23] = Table 3, drug 10 μM, WST-1, OD450 nm, read-out: survival rate (viability) of cancer cells, HeLa
[24] = Table 3, drug 10 μM, WST-1, OD450 nm, read-out: survival rate (viability) of cancer cells, AGS
[25] = Table 3, drug 10 μM, WST-1, OD450 nm, read-out: survival rate (viability) of cancer cells, H1650
[26] = Table 3, drug 10 μM, WST-1, OD450 nm, read-out: survival rate (viability) of cancer cells, MKN-45
[27] = Table 3, drug 10 μM, WST-1, OD450 nm, read-out: survival rate (viability) of cancer cells, TSGH
[28] = Table 3, drug 10 μM, WST-1, OD450 nm, read-out: survival rate (viability) of cancer cells, A549
[29] = Table 3, drug 10 μM, WST-1, OD450 nm, read-out: survival rate (viability) of cancer cells, MCF7
[30] = Table 3, drug 10 μM, WST-1, OD450 nm, read-out: survival rate (viability) of cancer cells, PC3
[31] = Table 3, drug 10 μM, WST-1, OD450 nm, read-out: survival rate (viability) of cancer cells, LoVo

Structure (SMILES)	viability at 10 µM [2, 14]	viability at 10 µM [5, 15]	viability at 10 µM [7, 16]	viability at 10 µM [8, 17]	viability at 10 µM [10, 18]	inhibition effect on different cancer cell lines (in words) (cancer cell lines)	viability at 10 µM [1, 20]	viability at 10 µM [2, 21]	viability at 10 µM [3, 22]	viability at 10 µM [4, 23]	viability at 10 µM [5, 24]	viability at 10 µM [6, 25]	viability at 10 µM [7, 26]	viability at 10 µM [8, 27]	viability at 10 µM [9, 28]	viability at 10 µM [10, 29]	viability at 10 µM [11, 30]	viability at 10 µM [12, 31]	viability at 10 µM [13]	Numbers of inhibitory effect on cancer cell line (cancer cell lines)	also measured
CCCCc1nc(Cl)c(CO)n1Cc1ccc(-c2ccccc2-c2nn[nH]n2)cc1 [Losartan potassium]	106%	74.1%	82.8%	92%	87.6%	significant inhibition effect	–	–	–	–	–	–	–	–	–	–	–	–	–	–	viability at 10 µM ([1]; Table 4, repeated experiments, drug 10 μM, WST-1, read-out: survival rate (viability) of cancer cells, A375): 96.6%; viability at 10 µM ([3]; Table 4, repeated experiments, drug 10 μM, WST-1, read-out: survival rate (viability) of cancer cells, HepG2): 93.9%; viability at 10 µM ([4]; Table 4, repeated experiments, drug 10 μM, WST-1, read-out: survival rate (viability) of cancer cells, HeLa): 83.4%; viability at 10 µM ([6]; Table 4, repeated experiments, drug 10 μM, WST-1, read-out: survival rate (viability) of cancer cells, H1650): 77.2%; viability at 10 µM ([9]; Table 4, repeated experiments, drug 10 μM, WST-1, read-out: survival rate (viability) of cancer cells, A549): 96%; viability at 10 µM [11, 19]: 120%; viability at 10 µM ([12]; Table 4, repeated experiments, drug 10 μM, WST-1, read-out: survival rate (viability) of cancer cells, LoVo): 106%; viability at 10 µM (T24): 66.3%; viability at 10 µM (Hep3B): 103%; viability at 10 µM (C-33A): 108%; viability at 10 µM (NIH-OVCAR-3): 98.7%; viability at 10 µM (TOV-21G): 78.6%; viability at 10 µM (AsPC-1): 86.4%; viability at 10 µM (BxPC-3): 77.7%; viability at 10 µM (SAS): 95.7%; viability at 10 µM (U2OS): 105%; viability at 10 µM (BCC): 90.2%; viability at 10 µM (786-O): 96.3%
CC1=C(C(=O)OC(C)C)C(c2cccc([N+](=O)[O-])c2)C(C(=O)OC2CN(C(c3ccccc3)c3ccccc3)C2)=C(N)N1 (stereo not shown) [Azelnidipine]	111%	90.2%	139%	115%	60.8%	–	–	–	–	–	–	–	–	–	–	–	–	–	–	–	viability at 10 µM [11, 19]: 121%; viability at 10 µM (AsPC-1): 53.6%; viability at 10 µM (BxPC-3): 64.6%; viability at 10 µM (SAS): 76.8%; viability at 10 µM (BCC): 100%
CCCCNc1cc(C(=O)O)cc(S(N)(=O)=O)c1Oc1ccccc1 [Bumetanide]	–	–	–	–	–	significant inhibition effect	67.6%	66.8%	86%	79.5%	69.9%	105%	98.8%	92.6%	88.2%	116%	72.7%	98.6%	98.3%	0	–
COCCCOc1cc(C[C@@H](C[C@H](N)[C@@H](O)C[C@H](C(=O)NCC(C)(C)C(N)=O)C(C)C)C(C)C)ccc1OC [Aliskiren hemifumarate]	–	–	–	–	–	significant inhibition effect	91.2%	97.2%	94.2%	108%	81.8%	79.8%	85.1%	73.3%	92%	99.1%	89%	99.5%	98.5%	0	–
CC(C)NCC(O)COc1ccc(COCCOC(C)C)cc1 (stereo not shown) [Bisoprolol]	–	–	–	–	–	significant inhibition effect	117%	118%	108%	111%	80.3%	80.7%	79.7%	87.5%	124%	112%	95.2%	119%	85.7%	0	–
